Source: patent publication US20060088471A1, “Compounds for enzyme inhibition” (Proteolix, Inc., priority 2004, published 2006)

Tests used:
p53 levels = conditions: epoxomicin treatment; cited from earlier work
[1] = target: purified human 20S proteasome (Homo sapiens, UniProt P28074); experiment: Binding to the proteasome via fluorescence polarization; conditions: 2 nM inhibitor
Protocol: Fluorescence was measured using the excitation wavelength of 485 nm and an emission wavelength of 535 nm.
2 nM of Inhibitor 1 was incubated with a serial dilution of purified human 20S proteasome (from 400 pM to 40 nM) in a 20 mM Tris, pH 8.0, 0.5 mM EDTA, 0.03% SDS buffer and was allowed to bind to the proteasome during an incubation at room temperature as shown in FIG. 2. Fluorescence polarization was measured by exciting the samples at 485 nm and detecting the emitted fluorescence at 535 nm in a microwell plate in a fluorimeter capable of measuring fluorescence polarization (Tecan GENios Pro). […] When the concentration of human 20S was low (free Inhibitor 1), the mP was about 40 millipolarization units (mP). The fluorescence polarization at high concentrations of human 20S (bound Inhibitor 1) was about 110 mP.

8226 cells = experiment: Cell viability, 8226; format: cell-based; conditions: 24 hr
[2] = target: human 20S proteasome (hu20S) (Homo sapiens, UniProt P28074); experiment: Human 20S chymotryptic activity, Suc-LLVY-AMC cleavage; format: biochemical; conditions: for Human 20S Chymotryptic Activity kinact./Ki: 10 μM Suc-LLVY-AMC, 1 nM hu20S, 20 mM Tris pH 8.0, 0.5 mM EDTA, 0.03% SDS, 5% DMSO; for IC50 / kinact/KI: Suc-LLVY-AMC substrate; for IC50: read-out: Human 20S Chymotryptic Activity Vf IC50; for kinact/KI: read-out: Human 20S Chymotryptic Activity kobs/[I]
Protocol: Proteasome activity was measured via LLVY-AMC cleavage. Fluorescence was measured using the excitation wavelength of 340 nm and an emission wavelength of 465 nm. The assay was carried out in 20 mM Tris, pH 8.0, 0.5 mM EDTA, 0.03% SDS buffer with 5% DMSO.
(§1) The ability of Inhibitor 1 to inhibit the proteolytic activity of the human 20S proteasome (hu20S) both in vitro and in cells was tested using the fluorescent substrate for the chymotryptic-like activity of the proteasome, Suc-LLVY-AMC as shown in FIG. 1 and Table 1. Fluorescence was measured using the excitation wavelength of 340 nm and an emission wavelength of 465 nm. […] The assay was carried out in 20 mM Tris, pH 8.0, 0.5 mM EDTA, 0.03% SDS buffer with 5% DMSO.

[3] = system: chymotryptic-like activity of the proteasome in 8226 cells; experiment: Cell chymotryptic activity in 8226 cells; format: cell-based, human; conditions: 1 hr
Protocol: as §1

[4] = target: β5 subunit of human 20S or whole blood lysate (Homo sapiens, UniProt P28074); experiment: Streptavidin gel shift assay compared with chymotryptic substrate cleavage assay; format: biochemical; conditions: probe Inhibitor 3
Protocol: Human 20S (50 nM) or whole blood lysate (100 mg/mL) was pretreated with either DMSO or Inhibitor 4 (200 nM) for 1 h. Inhibitor 3 (1 μM) was then added. After 1 h, unbound Inhibitor 3 was removed using a spin desalting column and the resulting solution was diluted (1:10) in 1% SDS and heated at 90° C. to denature the proteins. The solution was cooled to room temperature and streptavidin (±1 μg/15 μL) was added. The inhibitor/streptavidin solution was then added to NuPAGE sample buffer at room temperature (not boiled). The sample was then loaded on NuPAGE gel and run at 150 V in a refrigerator at approximately 4° C.

[5] = target: T1, chymotryptic-like activity of the proteasome in HT29 cells (Homo sapiens, UniProt P28074); experiment: Cell chymotryptic activity in HT29 cells; format: cell-based; conditions: 4 hr
T1 construct: endogenous in cells; host or cells: HT29 cells
Protocol: as §1

HT29 cells = experiment: Cell viability, HT29; format: cell-based; conditions: Homo sapiens, HT-29, 72 hr

**Q.** With CC[C@H](C)[C@H](NC(=O)[C@H]([C@@H](C)CC)N(C)C(C)=O)C(=O)N[C@H](C(=O)N[C@@H](CC(C)C)C(=O)[C@@]1(C)CO1)[C@@H](C)O [epoxomicin] as the molecule, how does the p53 levels stabilized (p53 levels) read?
**A.** The p53 levels stabilized was “over 50 fold”.

**Q.** Which results are given for CC(C)C[C@H](NC(=O)[C@H](CCc1ccccc1)NC(=O)c1ccc(C2=C3C=CC(O)C=C3Oc3cc(O)ccc32)c(C(=O)O)c1)C(=O)N[C@@H](Cc1ccccc1)C(=O)N[C@@H](CC(C)C)C(=O)[C@@]1(C)CO1 (single isomer, unassigned) [Inhibitor 1]?
**A.** Fluorescence polarization, bound Inhibitor 1 ([1]; high concentrations of human 20S): about 110 mP; Fluorescence polarization, free Inhibitor 1 ([1]; low concentration of human 20S): about 40 mP; IC50 (8226 cells): 191 nM; Human 20S Chymotryptic Activity kinact./Ki [2]: 27,000 M^-1sec^-1; IC50 [2]: 9.4 nM; kinact/KI [2]: 23000 M⁻¹ s⁻¹; IC50 [3]: 340 nM

**Q.** With CC(C)C[C@H](NC(=O)[C@H](CCc1ccccc1)NC(=O)CN1CCOCC1)C(=O)N[C@@H](Cc1ccccc1)C(=O)N[C@@H](CC(C)C)C(=O)[C@@]1(C)CO1 [Inhibitor 4] as the molecule, how does the “Dose response: gel shift assay versus chymotryptic substrate cleavage assay” value [4] read?
**A.** Its value is “comparable IC50 values”.

**Q.** With CC(=O)N[C@@H](CCc1ccccc1)C(=O)N[C@@H](CC(C)C)C(=O)N[C@@H](Cc1ccccc1)C(=O)N[C@@H](CC(C)C)C(=O)[C@@]1(C)CO1 [YU101] as the molecule, how does the IC50 [5] read?
**A.** The IC50 was 3.3 nM.

**Q.** What about the IC50 (8226 cells) of the same molecule?
**A.** Its IC50 is 5 nM.

**Q.** What about the “Human 20S Chymotryptic Activity kinact./Ki” value [2] of the same molecule?
**A.** Its value is 105,000 M^-1sec^-1.

**Q.** And the IC50 [2]?
**A.** The IC50 was 2 nM.

**Q.** And the kinact/KI [2]?
**A.** Its kinact/KI is 93500 M⁻¹ s⁻¹.

**Q.** What about the IC50 [3] of the same molecule?
**A.** The IC50 was 7.3 nM.

**Q.** And the IC50 (HT29 cells)?
**A.** The IC50 was 6.8 nM.
